Counter-ions that a name gives are not always drawn. Like-named read-outs stand apart in the source and are kept apart here.
Target: human σ1 receptor (Homo sapiens, UniProt Q99720)
Assay: biochemical
Format: binding
Set-up: μ and σ1 dual binding: key to the marks not given beside the values
[1] = read-out: μ and σ1 dual binding
[2] = combined class from Ki-σ1 (human σ1 receptor, A1) and Ki-μ (human μ-opioid receptor, A2) radioligand binding

Sequence of human σ1 receptor (Q99720 whole entry): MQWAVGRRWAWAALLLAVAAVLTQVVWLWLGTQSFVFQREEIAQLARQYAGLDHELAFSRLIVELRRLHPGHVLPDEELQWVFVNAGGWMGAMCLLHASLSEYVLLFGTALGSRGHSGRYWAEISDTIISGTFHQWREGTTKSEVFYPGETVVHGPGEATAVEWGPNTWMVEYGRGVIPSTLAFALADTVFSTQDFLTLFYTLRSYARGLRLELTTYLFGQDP

SMILES	Ki [1]	further results
COc1cccc(N2CCOC3(CCN(CCc4ccccc4)CC3)C2)c1.Cl [Example 333, 4-(3-methoxyphenyl)-9-phenethyl-1-oxa-4,9-diazaspiro[5.5]undecane hydrochloride]	–	μ and σ1 dual binding: ++
COc1ccccc1CCN1CCC2(CC1)CN(c1ccccc1)CCO2.Cl [Example 334, 9-(2-methoxyphenethyl)-4-phenyl-1-oxa-4,9-diazaspiro[5.5]undecane hydrochloride]	–	μ and σ1 dual binding: ++
CC1CN(Cc2ccccc2)CC2(CCN(CCc3ccccc3)CC2)O1 (centres unmarked) [Example 335, 4-benzyl-2-methyl-9-phenethyl-1-oxa-4,9-diazaspiro[5.5]undecane dihydrochloride]	< 100 nM	–
c1ccc(CCN2CCC3(CC2)CN(Cc2ccccn2)CCO3)cc1 [Example 336, 9-phenethyl-4-(pyridin-2-ylmethyl)-1-oxa-4,9-diazaspiro[5.5]undecane dihydrochloride]	< 100 nM	–
c1ccc(CCN2CCC3(CC2)CN(CCc2ccccc2)CCO3)cc1 [Example 337, 4,9-diphenethyl-1-oxa-4,9-diazaspiro[5.5]undecane dihydrochloride]	–	μ and σ1 dual binding: ++
Nc1cccc(CCN2CCC3(CC2)CN(Cc2ccccc2)CCO3)c1 [Example 338, 3-(2-(4-benzyl-1-oxa-4,9-diazaspiro[5.5]undecan-9-yl)ethyl)aniline]	> 500 nM	–
CC(=O)Nc1cccc(CCN2CCC3(CC2)CN(Cc2ccccc2)CCO3)c1 [Example 339, N-(3-(2-(4-benzyl-1-oxa-4,9-diazaspiro[5.5]undecan-9-yl)ethyl)phenyl)acetamide]	< 100 nM	–
CC1COC2(CCN(CCc3ccccc3)CC2)CN1c1ccccc1 (centres unmarked) [Example 340, 3-methyl-9-phenethyl-4-phenyl-1-oxa-4,9-diazaspiro[5.5]undecane hydrochloride]	–	Ki: < 500 nM
O=C1N(c2cccnc2C(F)(F)F)CC2(CCN(CCc3cc(F)ccc3F)CC2)OC12CC2 [Example 341, 8-(2,5-difluorophenethyl)-12-(2-(trifluoromethyl)pyridin-3-yl)-4-oxa-8,12-diazadispiro[2.1.5.3]tridecan-13-one]	–	μ and σ1 dual binding [2]: ++
O=C1N(c2cnccc2C(F)(F)F)CC2(CCN(CCc3cc(F)ccc3F)CC2)OC12CC2 [Example 342, 8-(2,5-difluorophenethyl)-12-(4-(trifluoromethyl)pyridin-3-yl)-4-oxa-8,12-diazadispiro[2.1.5.3]tridecan-13-one]	< 500 nM	–
O=C1N(c2ncccc2C(F)(F)F)CC2(CCN(CCc3cc(F)ccc3F)CC2)OC12CC2 [Example 343, 8-(2,5-difluorophenethyl)-12-(3-(trifluoromethyl)pyridin-2-yl)-4-oxa-8,12-diazadispiro[2.1.5.3]tridecan-13-one]	< 500 nM	–
Fc1cccnc1CCN1CCC2(CC1)CN(Cc1ccccc1)CC1(CC1)O2 [Example 344, 12-benzyl-8-(2-(3-fluoropyridin-2-yl)ethyl)-4-oxa-8,12-diazadispiro[2.1.5.3]tridecane]	< 100 nM	–
COC(=O)CCN1CCC2(CC1)CN(Cc1ccccc1)C(=O)C1(CC1)O2 [Example 346, methyl 3-(12-benzyl-13-oxo-4-oxa-8,12-diazadispiro[2.1.5.3]tridecan-8-yl)propanoate]	–	μ and σ1 dual binding [2]: ++
COC(=O)CCN1CCC2(CC1)CN(Cc1ccccc1)CC1(CC1)O2 [Example 347, methyl 3-(12-benzyl-4-oxa-8,12-diazadispiro[2.1.5.3]tridecan-8-yl)propanoate]	–	Ki: < 500 nM
COC(=O)CCN1CCC2(CC1)CN(c1ccccc1)C(=O)C1(CC1)O2 [Example 348, methyl 3-(13-oxo-12-phenyl-4-oxa-8,12-diazadispiro[2.1.5.3]tridecan-8-yl)propanoate]	> 500 nM	–
O=C1CO[C@@]2(CCN(Cc3ccccc3)C2)CN1c1ccccc1 [Example 349, (R)-2-benzyl-9-phenyl-6-oxa-2,9-diazaspiro[4.5]decan-8-one]	> 500 nM	–
O=C1CO[C@]2(CCN(Cc3ccccc3)C2)CN1c1ccccc1 [Example 350, (S)-2-benzyl-9-phenyl-6-oxa-2,9-diazaspiro[4.5]decan-8-one]	> 500 nM	–

From patent US10703765B2 (priority 2014, dated 2020)
